Test results as given in ChEMBL document CHEMBL5465560, “Selectivity Literature for EUbOPEN Chemogenomic Library” (2024).

Legend:
[1] = target: Serine/threonine-protein kinase 24 (Homo sapiens) (UniProt Q9Y6E0); assay: Selectivity interaction (KinomeScan (DiscoverX)) EUB0001049a STK24; conditions: at 1 µM
[2] = target: Phosphatidylinositol 4,5-bisphosphate 3-kinase catalytic subunit beta isoform (Homo sapiens) (UniProt P42338); assay: Selectivity interaction (Kinase panel (literature)) EUB0001199aCl PIK3CB; conditions: at 1 µM
Sequence of Phosphatidylinositol 4,5-bisphosphate 3-kinase catalytic subunit beta isoform (Homo sapiens) (P42338 whole entry, looked up, canonical isoform): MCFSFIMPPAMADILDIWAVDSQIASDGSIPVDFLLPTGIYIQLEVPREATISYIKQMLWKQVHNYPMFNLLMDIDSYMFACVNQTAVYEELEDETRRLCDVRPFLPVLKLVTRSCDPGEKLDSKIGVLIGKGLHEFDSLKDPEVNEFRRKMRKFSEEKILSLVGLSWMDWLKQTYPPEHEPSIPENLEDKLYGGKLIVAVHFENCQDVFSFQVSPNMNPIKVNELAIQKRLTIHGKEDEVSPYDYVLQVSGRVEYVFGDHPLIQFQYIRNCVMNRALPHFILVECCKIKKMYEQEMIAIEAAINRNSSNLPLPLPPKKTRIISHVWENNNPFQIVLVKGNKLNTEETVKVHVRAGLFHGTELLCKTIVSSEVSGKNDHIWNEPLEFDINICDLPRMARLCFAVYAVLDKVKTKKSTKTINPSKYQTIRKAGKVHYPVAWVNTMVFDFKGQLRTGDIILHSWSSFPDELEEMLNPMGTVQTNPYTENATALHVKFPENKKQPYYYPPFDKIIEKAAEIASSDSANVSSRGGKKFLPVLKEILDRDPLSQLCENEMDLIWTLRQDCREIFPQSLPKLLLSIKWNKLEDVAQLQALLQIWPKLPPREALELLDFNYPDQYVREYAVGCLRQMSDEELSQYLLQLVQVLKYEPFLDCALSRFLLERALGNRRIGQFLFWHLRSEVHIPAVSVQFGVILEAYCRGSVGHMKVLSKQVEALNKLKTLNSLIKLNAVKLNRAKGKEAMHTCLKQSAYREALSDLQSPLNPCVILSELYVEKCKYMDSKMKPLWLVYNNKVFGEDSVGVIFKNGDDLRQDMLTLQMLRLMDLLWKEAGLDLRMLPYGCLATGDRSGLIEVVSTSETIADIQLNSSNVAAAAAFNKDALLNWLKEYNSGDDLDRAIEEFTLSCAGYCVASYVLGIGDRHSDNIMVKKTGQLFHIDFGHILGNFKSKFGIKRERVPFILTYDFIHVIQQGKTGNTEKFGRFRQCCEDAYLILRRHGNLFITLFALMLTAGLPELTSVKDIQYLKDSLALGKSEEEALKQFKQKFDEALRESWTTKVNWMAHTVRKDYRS

[3] = target: Serine/threonine-protein kinase ATR (Homo sapiens) (UniProt Q13535); assay: Selectivity interaction (Kinase panel (KiNativ target engagement assay in Jurkat cells)) EUB0001635a ATR; format: cell-based; conditions: at 1 µM
[4] = target: T1, Mitogen-activated protein kinase kinase kinase 6 (Homo sapiens) (UniProt O95382); assay: Selectivity interaction (ActivX KiNativ screen (kinase selectivity in THP-1 cell lysates)) EUB0000639a MAP3K6; format: subcellular; conditions: lysate, at 5 µM
T1 sequence (whole entry): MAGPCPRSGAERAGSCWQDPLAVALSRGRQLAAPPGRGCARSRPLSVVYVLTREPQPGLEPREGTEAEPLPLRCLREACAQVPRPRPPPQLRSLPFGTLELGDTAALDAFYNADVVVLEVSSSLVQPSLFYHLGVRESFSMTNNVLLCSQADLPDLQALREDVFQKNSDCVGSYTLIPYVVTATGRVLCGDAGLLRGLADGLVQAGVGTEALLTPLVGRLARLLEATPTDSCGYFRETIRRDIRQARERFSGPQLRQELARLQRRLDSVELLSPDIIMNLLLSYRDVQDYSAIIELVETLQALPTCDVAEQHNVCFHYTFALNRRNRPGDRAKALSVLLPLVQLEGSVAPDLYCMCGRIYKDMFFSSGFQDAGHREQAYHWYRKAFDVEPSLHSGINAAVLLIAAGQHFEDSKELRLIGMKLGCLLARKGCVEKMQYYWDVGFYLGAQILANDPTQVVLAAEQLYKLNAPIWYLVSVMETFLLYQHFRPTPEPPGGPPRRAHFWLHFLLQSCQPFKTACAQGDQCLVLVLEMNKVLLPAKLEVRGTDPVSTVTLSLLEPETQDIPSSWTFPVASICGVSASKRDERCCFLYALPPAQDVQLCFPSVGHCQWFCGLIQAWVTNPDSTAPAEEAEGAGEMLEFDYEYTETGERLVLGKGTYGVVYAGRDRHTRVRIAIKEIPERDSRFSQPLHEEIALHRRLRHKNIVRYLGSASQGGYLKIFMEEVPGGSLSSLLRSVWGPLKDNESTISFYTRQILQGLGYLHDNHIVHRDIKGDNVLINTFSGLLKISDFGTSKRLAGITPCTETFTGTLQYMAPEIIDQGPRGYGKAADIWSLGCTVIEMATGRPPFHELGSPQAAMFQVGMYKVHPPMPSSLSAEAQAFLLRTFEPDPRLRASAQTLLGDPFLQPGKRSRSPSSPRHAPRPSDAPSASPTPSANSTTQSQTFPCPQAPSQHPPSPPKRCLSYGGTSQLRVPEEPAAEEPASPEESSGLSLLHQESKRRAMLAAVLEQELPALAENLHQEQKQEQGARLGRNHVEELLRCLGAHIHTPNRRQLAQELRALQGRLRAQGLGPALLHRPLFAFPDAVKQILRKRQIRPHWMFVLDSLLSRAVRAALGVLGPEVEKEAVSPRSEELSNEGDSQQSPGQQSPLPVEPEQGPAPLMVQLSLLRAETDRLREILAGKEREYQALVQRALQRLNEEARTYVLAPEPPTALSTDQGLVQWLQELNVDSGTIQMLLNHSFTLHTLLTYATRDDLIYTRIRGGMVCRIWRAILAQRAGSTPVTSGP

[5] = target: Dual specificity protein kinase CLK2 (Homo sapiens, UniProt P49760); assay: Selectivity interaction (KinomeScan (DiscoverX)) EUB0000595a CLK2; conditions: at 10 µM
Sequence of Dual specificity protein kinase CLK2 (P49760 whole entry, looked up): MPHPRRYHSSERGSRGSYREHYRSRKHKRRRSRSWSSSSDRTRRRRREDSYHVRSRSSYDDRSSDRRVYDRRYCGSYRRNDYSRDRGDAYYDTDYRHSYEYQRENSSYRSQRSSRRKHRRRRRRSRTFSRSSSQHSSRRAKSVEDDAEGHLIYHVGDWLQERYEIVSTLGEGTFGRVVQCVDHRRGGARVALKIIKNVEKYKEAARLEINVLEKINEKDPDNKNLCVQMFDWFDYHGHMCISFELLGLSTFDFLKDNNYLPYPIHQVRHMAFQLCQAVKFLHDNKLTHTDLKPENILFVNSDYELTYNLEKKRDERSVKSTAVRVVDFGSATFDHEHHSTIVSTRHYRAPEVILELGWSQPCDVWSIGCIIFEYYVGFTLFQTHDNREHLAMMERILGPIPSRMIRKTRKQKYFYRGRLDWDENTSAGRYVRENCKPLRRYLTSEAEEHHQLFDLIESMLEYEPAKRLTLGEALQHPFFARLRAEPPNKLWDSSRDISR

[6] = target: Myosin light chain kinase, smooth muscle (Homo sapiens, UniProt Q15746); assay: Selectivity interaction (Ambit KINOMEscan and KiNATiv profiling in Jurkat cells) EUB0000090b MYLK; format: cell-based; conditions: at 1 µM
[7] = target: Epithelial discoidin domain-containing receptor 1 (Homo sapiens) (UniProt Q08345); assay: Selectivity interaction (Ambit KINOMEscan and KiNATiv profiling in Jurkat cells) EUB0000090b DDR1; format: cell-based; conditions: at 1 µM
Sequence of Epithelial discoidin domain-containing receptor 1 (Homo sapiens) (Q08345 whole entry, the tested form may be a part): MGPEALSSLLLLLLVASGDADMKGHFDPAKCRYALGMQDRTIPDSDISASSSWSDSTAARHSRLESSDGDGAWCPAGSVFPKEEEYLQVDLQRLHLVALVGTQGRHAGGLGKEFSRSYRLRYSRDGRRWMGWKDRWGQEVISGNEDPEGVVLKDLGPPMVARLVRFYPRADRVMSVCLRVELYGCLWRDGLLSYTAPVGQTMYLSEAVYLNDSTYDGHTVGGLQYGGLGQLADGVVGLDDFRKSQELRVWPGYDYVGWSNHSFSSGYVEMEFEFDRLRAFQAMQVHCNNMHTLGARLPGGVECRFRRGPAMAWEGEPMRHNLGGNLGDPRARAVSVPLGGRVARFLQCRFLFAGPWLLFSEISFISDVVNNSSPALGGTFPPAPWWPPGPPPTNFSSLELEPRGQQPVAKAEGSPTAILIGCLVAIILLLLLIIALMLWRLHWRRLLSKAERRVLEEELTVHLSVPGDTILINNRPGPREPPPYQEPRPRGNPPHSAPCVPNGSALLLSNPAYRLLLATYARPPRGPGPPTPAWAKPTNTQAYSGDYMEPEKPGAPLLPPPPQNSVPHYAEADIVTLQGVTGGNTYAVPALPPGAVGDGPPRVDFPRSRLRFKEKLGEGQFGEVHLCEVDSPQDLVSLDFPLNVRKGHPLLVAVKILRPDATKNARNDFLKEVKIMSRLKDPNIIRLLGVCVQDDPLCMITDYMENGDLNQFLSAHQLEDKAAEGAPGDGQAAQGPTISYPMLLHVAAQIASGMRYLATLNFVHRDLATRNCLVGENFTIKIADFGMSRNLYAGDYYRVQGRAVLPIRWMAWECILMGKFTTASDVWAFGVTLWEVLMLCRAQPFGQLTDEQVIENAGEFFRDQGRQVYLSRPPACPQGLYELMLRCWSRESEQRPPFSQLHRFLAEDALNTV

[8] = tested on: Tyrosine-protein kinase ABL1 (Homo sapiens), P00519 [Q252H]; assay: Selectivity interaction (KinomeScan (DiscoverX)) EUB0000045b ABL1; conditions: at 10 µM
[9] = target: Mitogen-activated protein kinase 14 (Homo sapiens, UniProt Q16539); conditions: at 10 µM
Sequence of Mitogen-activated protein kinase 14 (Q16539 whole entry): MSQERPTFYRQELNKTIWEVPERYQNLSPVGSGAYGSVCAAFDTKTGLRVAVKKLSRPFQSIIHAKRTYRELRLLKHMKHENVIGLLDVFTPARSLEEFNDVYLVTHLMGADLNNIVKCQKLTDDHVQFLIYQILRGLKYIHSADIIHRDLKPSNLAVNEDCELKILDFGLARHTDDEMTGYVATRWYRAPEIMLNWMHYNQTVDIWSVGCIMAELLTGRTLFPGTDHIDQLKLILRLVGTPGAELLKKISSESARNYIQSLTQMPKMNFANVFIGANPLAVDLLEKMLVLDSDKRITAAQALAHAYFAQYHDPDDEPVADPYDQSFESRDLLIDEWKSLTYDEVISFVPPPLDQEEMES

[10] = target: Cyclin-dependent kinase 4/cyclin D1 (Homo sapiens) (UniProt P11802+P24385); assay: (§1) Selectivity interaction (KinomeScan (DiscoverX)) EUB0000655a CDK4; format: protein-complex assay; conditions: at 10 µM
[11] = target: CDK4/Cyclin D3 (Homo sapiens) (UniProt P11802+P30281); assay: as §1; format: protein-complex assay; conditions: at 10 µM
[12] = target: Dual specificity tyrosine-phosphorylation-regulated kinase 1B (Homo sapiens, UniProt Q9Y463); assay: Selectivity interaction (KinomeScan (DiscoverX)) EUB0000607a DYRK1B; conditions: at 10 µM
Sequence of Dual specificity tyrosine-phosphorylation-regulated kinase 1B (Q9Y463 whole entry, looked up): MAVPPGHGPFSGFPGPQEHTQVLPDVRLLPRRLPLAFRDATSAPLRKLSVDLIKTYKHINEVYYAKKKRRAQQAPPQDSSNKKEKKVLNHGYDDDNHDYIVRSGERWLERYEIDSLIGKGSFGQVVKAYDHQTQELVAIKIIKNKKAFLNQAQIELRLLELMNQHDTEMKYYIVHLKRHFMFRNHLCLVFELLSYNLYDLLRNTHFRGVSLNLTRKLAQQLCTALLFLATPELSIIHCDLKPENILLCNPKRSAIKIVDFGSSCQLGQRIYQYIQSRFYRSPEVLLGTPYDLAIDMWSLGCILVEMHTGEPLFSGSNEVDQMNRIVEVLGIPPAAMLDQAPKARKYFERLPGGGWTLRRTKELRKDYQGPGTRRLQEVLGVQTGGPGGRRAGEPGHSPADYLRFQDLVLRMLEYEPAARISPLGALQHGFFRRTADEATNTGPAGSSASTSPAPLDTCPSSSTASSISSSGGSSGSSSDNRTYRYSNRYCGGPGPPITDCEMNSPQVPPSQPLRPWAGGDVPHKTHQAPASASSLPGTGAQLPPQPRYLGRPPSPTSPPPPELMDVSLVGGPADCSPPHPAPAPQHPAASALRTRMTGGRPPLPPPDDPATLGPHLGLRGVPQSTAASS

[13] = target: Tyrosine-protein kinase Fyn (Homo sapiens) (UniProt P06241); assay: Selectivity interaction (SelectScreen profiling (Invitrogen)) EUB0000607a FYN; conditions: at 2 µM
Sequence of Tyrosine-protein kinase Fyn (Homo sapiens) (P06241 2-537 limits assumed): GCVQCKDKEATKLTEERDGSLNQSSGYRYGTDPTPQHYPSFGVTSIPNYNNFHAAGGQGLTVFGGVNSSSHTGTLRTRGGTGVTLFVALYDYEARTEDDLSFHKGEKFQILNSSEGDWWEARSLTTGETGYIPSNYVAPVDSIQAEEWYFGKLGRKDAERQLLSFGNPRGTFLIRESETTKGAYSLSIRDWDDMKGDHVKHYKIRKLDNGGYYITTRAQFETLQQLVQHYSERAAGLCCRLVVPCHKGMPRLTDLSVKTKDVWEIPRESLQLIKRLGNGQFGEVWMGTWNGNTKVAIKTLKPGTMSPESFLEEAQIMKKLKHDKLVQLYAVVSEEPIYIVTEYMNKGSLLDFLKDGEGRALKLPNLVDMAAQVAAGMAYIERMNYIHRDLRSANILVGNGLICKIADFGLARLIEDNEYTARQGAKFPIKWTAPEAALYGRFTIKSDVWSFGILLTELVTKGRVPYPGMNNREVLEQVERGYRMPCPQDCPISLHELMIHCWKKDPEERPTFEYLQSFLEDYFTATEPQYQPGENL

[14] = target: MAP kinase-activated protein kinase 2 (Homo sapiens, UniProt P49137); assay: Selectivity interaction (SelectScreen profiling (Invitrogen)) EUB0000607a MAPKAPK2; conditions: at 2 µM
Sequence of MAP kinase-activated protein kinase 2 (P49137 whole entry, looked up): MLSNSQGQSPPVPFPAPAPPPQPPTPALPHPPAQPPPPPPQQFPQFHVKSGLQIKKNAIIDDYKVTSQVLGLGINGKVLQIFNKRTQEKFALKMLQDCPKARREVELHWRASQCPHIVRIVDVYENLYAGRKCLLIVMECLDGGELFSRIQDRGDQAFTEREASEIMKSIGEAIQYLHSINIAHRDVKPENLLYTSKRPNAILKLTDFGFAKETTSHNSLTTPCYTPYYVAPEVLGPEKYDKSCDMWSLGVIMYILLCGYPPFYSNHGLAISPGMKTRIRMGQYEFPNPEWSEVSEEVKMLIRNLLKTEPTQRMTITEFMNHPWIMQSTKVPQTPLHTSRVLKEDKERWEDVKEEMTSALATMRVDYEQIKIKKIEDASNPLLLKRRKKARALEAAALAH

[15] = target: T2, Histone-lysine N-methyltransferase SUV39H1 (Homo sapiens) (UniProt O43463); assay: Selectivity interaction (Methyltransferase screen (radiometric assays, panel of 8 PRMTs, 21 protein lysine methyltransferases, 3 DNA methyltransferases, and one RNA methyltransferase)) EUB0000272b SUV39H1
T2 sequence (whole entry): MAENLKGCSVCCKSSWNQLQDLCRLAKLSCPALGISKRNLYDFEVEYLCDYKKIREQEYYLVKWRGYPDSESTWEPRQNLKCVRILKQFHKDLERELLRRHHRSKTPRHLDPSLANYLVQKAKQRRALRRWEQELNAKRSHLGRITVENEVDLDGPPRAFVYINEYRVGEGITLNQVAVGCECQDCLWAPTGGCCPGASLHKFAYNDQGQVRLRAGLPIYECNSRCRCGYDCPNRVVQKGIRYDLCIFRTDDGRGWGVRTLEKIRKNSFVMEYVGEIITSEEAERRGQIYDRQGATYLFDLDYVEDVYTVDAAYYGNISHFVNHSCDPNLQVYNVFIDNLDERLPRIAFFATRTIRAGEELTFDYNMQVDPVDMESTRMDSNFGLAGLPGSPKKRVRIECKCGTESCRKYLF

Sequence of Serine/threonine-protein kinase 24 (Homo sapiens) (Q9Y6E0 whole entry, looked up, canonical isoform): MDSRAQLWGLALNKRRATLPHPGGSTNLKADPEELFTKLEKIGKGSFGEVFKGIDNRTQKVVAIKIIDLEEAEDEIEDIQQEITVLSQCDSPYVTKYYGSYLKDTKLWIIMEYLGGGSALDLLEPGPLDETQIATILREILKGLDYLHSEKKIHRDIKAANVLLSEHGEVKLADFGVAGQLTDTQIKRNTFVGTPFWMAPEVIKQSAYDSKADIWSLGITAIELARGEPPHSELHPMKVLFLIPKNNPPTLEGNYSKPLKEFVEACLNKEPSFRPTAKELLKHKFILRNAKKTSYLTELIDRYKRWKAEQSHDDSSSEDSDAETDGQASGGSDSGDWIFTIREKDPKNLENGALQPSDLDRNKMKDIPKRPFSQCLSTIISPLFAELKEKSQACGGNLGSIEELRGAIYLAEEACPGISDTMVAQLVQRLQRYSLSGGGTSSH

For `COc1cc(Nc2nc(C)cc(-c3cnn4nc(OC)ccc34)n2)cc(C(F)(F)F)c1`, the % of control [1] was 76%.
`CN1Cc2nccc(-c3cn(C)nc3-c3ccc(F)cc3)c2C1=O` was tested, and the % of inhibition [2] was 1%.
In the case of `C=CC(=O)Nc1ccc(C(=O)Nc2[nH]nc3c2CN(C(=O)N[C@H](CN(C)C)c2ccccc2)C3(C)C)cc1`, the % of engagement [3] was -11.3%.
Compound `CC[C@@H]1[C@H](F)C(=O)N[C@@H]1COc1nccc2cc(C(N)=O)c(OC)cc12` [ZIMLOVISERTIB] has a % of inhibition [4] of -27%.
In the case of `COCC(=O)NC/C=C/c1ccc2ncnc(Nc3ccc(Oc4ccc(C)nc4)c(C)c3)c2c1` [CP-724714], the % of control [5] was 75%.
In the case of `CN(C)C/C=C/C(=O)Nc1ccc(C(=O)N2CCCC(Nc3ncc(Cl)c(-c4c[nH]c5ccccc45)n3)C2)cc1` (stereo unspecified), the % of control [6] was 78% and the % of control [7] was 93%.
For `C=CC(=O)Nc1cc(-n2c(=O)ccc3cnc4ccc(-c5ccc(NS(C)(=O)=O)cc5)cc4c32)ccc1C`, the % of control [8] was 75%.
`Cc1cc([C@@H](C)Nc2ccccc2C(=O)O)c2nc(N3CCOCC3)cc(=O)n2c1` [AZD-6482] showed a % of control [9] of 97%.
In the case of `CN(C)CCOc1ccc(-c2nc(-c3ccncc3)c(-c3ccc4c(c3)CC/C4=N\O)[nH]2)cc1`, the % of control [10] was 58% and the % of control [11] was 86%.
For `CNC(=O)Nc1ccc(-c2nc(N3CC4CCC(C3)O4)c3cnn(C4CCC5(CC4)OCCO5)c3n2)cc1`, the % of control [12] was 100%, the % of inhibition [13] was 2% and the % of inhibition [14] was 4%.
For `Cc1cc(C)cc([C@H]2c3cc(C)ccc3NC(=O)CN2C(=O)c2ccc(Br)s2)c1`, the % of activity ([15]; at 1 µM) was 100% and the % of activity ([15]; at 10 µM) was 96.7%.
